Measured values: patent EP4796530A1 (Biocells (Beijing) Biotech Co., Ltd., priority 2023, dated 2025)

Assays:
NLRP3 [1] = target: NLRP3 (Homo sapiens, UniProt Q96P20); assay: Inhibition curves (IC50) of canonical NLRP3 activation (LPS+Nig) in THP-1 cells, IL-1β release; type: cell-based; design: host or cells: THP-1 human acute monocytic leukemia cell line, PMA-differentiated; conditions: THP-1 cell LPS+Nig activation model
Description: Nig was purchased from Shanghai Yuanye Bio-Technology Co., Ltd., Cat. No.: S45490.
The cells were incubated overnight.
Therefore, the relative change in the amount of IL-1β release may directly reflect NLRP3 inhibitory effect. The inhibitory effect of the compounds varies with different concentrations, and based on this, an inhibition curve can be constructed, and the inhibitory effects of the compounds were assessed by IC50.

NLRP3 [2] = target: T1, NLRP3 (Mus musculus, UniProt Q8R4B8); assay: MSU-induced mouse peritonitis model: IL-1β in ascites; type: in vivo, C57BL/6J female mice; design: tissue National Institutes for Food and Drug Control; host or cells: C57BL/6J mice in vivo (serum IL-1β in A7, ascites IL-1β in A8); conditions: oral gavage; LPS 2 h later, MSU after another 2 h, ascites 30 min later
Description: Intraperitoneal injection of LPS and monosodium urate crystals (MSU) in mice can induce the activation of NLRP3 and release of large amounts of IL-1β. […] LPS was purchased from Sigma, Cat. No. L2654. MSU was purchased from Bide Pharmatech Co., Ltd., Cat. No. BD367417. C57BL/6J female mice aged 8 weeks were purchased from National Institutes for Food and Drug Control.
The mice were administered the example compounds via oral gavage. […] Ascites was collected 30 min later, and then IL-1β protein detection was performed on the ascites.
Experimental groups: a model group, and an example compound dosing group.

NLRP3 [3] = target: T1, NLRP3; assay: LPS-induced sepsis model in mice: serum IL-1β and survival rate; type: in vivo, C57BL/6 mice; design: tissue National Institutes for Food and Drug Control; host or cells: C57BL/6J mice in vivo (serum IL-1β in A7, ascites IL-1β in A8); conditions: 30 mg/kg intraperitoneally 1 h before 20 mg/kg LPS
Description: Intraperitoneal injection of 20 mg/kg LPS can induce a septic state in C57BL/6 mice and cause a significant increase in serum IL-1β after injection. Example compounds were intraperitoneally injected preemptively to study the effects on IL-1β increase and mouse survival rate. LPS was purchased from Sigma, Cat. No. L2630; and C57BL/6J male mice aged 6-8 weeks were purchased from National Institutes for Food and Drug Control.
Experimental groups: a sham group, a model group, and an example compound dosing group.
30 mg/kg of example compounds were injected intraperitoneally. 1 h later, 20 mg/kg LPS was injected intraperitoneally into the model group and the example compound dosing group for modeling, and the control solvent was injected into the sham group. Serum samples were collected from a batch of mice at 2.5 h and 4 h after modeling, and the levels of IL-1β were analyzed. For another batch of mice, the survival rate of the mice was calculated after modeling.

T1 sequence (Q8R4B8 whole entry): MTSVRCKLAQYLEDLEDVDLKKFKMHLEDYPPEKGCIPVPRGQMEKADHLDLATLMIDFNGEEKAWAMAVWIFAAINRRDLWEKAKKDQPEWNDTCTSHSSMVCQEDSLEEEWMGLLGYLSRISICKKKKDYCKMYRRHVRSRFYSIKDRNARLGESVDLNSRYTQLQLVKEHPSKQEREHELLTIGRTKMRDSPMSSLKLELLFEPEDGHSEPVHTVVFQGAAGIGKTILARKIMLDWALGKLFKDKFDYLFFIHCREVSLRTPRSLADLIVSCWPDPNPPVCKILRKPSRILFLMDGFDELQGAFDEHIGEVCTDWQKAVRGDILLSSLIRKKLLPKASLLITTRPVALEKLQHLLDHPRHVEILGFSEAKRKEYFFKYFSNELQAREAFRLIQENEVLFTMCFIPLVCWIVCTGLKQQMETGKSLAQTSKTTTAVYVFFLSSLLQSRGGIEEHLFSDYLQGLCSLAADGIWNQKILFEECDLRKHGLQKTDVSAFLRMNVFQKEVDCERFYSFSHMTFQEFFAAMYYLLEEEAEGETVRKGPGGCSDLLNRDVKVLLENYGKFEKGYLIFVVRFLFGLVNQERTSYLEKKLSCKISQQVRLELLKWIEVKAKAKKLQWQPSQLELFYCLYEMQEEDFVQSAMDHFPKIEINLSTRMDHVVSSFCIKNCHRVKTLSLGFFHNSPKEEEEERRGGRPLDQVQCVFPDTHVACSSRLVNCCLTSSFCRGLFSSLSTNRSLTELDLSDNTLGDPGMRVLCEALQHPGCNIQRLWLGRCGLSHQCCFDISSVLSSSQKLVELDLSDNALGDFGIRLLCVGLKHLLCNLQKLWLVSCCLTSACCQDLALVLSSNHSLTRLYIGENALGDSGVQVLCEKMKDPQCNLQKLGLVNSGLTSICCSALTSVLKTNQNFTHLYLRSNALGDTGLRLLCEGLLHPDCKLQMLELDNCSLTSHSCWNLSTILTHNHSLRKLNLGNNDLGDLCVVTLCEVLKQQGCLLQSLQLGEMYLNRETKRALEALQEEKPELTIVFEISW
Sequence of NLRP3 (Homo sapiens, UniProt Q96P20) (Q96P20 whole entry): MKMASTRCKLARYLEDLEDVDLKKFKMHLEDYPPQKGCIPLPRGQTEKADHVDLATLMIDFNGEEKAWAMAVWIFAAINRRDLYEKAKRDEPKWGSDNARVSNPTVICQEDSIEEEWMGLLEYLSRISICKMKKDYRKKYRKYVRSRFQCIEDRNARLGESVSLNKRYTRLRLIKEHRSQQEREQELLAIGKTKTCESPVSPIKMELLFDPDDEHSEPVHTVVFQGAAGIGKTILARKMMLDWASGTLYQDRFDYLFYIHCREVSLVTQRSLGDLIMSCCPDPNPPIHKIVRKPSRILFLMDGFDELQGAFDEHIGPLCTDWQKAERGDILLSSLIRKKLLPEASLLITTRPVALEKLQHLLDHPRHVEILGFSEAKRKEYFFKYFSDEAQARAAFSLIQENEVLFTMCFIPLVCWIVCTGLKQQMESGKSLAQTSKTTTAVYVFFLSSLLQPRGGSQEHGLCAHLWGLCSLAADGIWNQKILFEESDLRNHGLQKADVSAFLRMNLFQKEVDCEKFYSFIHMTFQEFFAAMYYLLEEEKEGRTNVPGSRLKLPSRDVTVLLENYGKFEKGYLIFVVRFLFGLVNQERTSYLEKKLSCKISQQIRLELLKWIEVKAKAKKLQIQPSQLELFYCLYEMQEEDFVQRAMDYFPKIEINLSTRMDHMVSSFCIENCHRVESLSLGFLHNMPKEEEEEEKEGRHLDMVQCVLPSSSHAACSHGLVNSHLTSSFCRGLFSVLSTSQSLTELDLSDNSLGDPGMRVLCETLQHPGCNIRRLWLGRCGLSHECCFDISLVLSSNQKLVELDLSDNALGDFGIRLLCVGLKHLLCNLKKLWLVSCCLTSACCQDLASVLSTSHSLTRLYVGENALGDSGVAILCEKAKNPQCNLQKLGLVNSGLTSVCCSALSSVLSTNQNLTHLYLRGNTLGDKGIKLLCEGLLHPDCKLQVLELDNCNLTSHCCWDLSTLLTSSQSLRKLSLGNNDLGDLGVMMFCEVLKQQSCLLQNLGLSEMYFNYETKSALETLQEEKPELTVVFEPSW

CN(C)Cc1cccc(S(=O)(=O)NC(=O)Nc2c3c(cc4c2CCC4)CCC3)c1N [Example 19, 2-amino-3-((dimethylamino)methyl)-N-((1,2,3,5,6,7-hexahydro-s-indacen-4-yl)carbamoyl)benzenesulfonamide]
IC50 (NLRP3 [1]): 278 nM | level of IL-1β in ascites compared with the model group (NLRP3 [2]): significantly inhibited | mouse survival rate compared with the model group (NLRP3 [3]): significantly improved | survival rate compared with MCC950 (NLRP3 [3]): significantly further improved | IL-1β level in serum compared with the model group (NLRP3 [3]; 2.5 h after modeling): significant differences | IL-1β level in serum compared with the model group (NLRP3 [3]; 4 h after modeling): significant differences
